The subject of assay [1] is HCV replicon RNA in Huh 11-7 cell line. Briefly: Cell-Based Replicon Assay. The settings on record: Hepatitis C virus, 96 h, read-out: EC50 in the Cell-Based Replicon Assay. The method, then:
Quantification of HCV replicon RNA (HCV Cell Based Assay) is accomplished using the Huh 11-7 cell line (Lohmann, et al Science 285:110-113, 1999). Cells are seeded at 4×10^3 cells/well in 96 well plates and fed media containing DMEM (high glucose), 10% fetal calf serum, penicillin-streptomycin and non-essential amino acids. Cells are incubated in a 7.5% CO2 incubator at 37° C. At the end of the incubation period, total RNA is extracted and purified from cells using Ambion RNAqueous 96 Kit (Catalog No. AM1812). To amplify the HCV RNA so that sufficient material can be detected by an HCV specific probe (below), primers specific for HCV (below) mediate both the reverse transcription of the HCV RNA and the amplification of the cDNA by polymerase chain reaction (PCR) using the TaqMan One-Step RT-PCR Master Mix Kit (Applied Biosystems catalog no. 4309169). The nucleotide sequences of the RT-PCR primers, which are located in the NS5B region of the HCV genome, are the following:
Detection of the RT-PCR product is accomplished using the Applied Biosystems (ABI) Prism 7500 Sequence Detection System (SDS) that detects the fluorescence that is emitted when the probe, which is labeled with a fluorescence reporter dye and a quencher dye, is degraded during the PCR reaction. The increase in the amount of fluorescence is measured during each cycle of PCR and reflects the increasing amount of RT-PCR product. Specifically, quantification is based on the threshold cycle, where the amplification plot crosses a defined fluorescence threshold. […] The data is analyzed using the ABI SDS program version 1.7. […]
The RT-PCR product was detected using the following labeled probe: […]
To normalize the data to an internal control molecule within the cellular RNA, RT-PCR is performed on the cellular messenger RNA glyceraldehyde-3-phosphate dehydrogenase (GAPDH). […] GAPDH RT-PCR is performed on the same RNA sample from which the HCV copy number is determined. […] The ratio of HCV/GAPDH RNA is used to calculate the activity of compounds evaluated for inhibition of HCV RNA replication. […]
Background: A replicon is a self-replicating genome or part of one, used to study replication in cells.

Assay [2] addresses T1, full-length NS3 HCV protease 1b tethered with NS4A cofactor (Hepatitis C virus genotype 1b, UniProt Q9WMX2).
T1 construct: full-length NS3 HCV protease 1b tethered with NS4A cofactor; NS4A cofactor (tethered, fused to NS3)
The assay can be described thus: NS3/NS4a Protease Enzyme Assay. Format: biochemical. The method, then: HCV protease activity and inhibition is assayed using an internally quenched fluorogenic substrate. A DABCYL and an EDANS group are attached to opposite ends of a short peptide. Quenching of the EDANS fluorescence by the DABCYL group is relieved upon proteolytic cleavage. Fluorescence is measured with a Molecular Devices Fluoromax (or equivalent) using an excitation wavelength of 355 nm and an emission wavelength of 485 nm.
The assay is run in Corning white half-area 96-well plates (VWR 29444-312 [Corning 3693]) with full-length NS3 HCV protease 1b tethered with NS4A cofactor (final enzyme concentration 1 to 15 nM). The assay buffer is complemented with 10 μM NS4A cofactor Pep 4A (Anaspec 25336 or in-house, MW 1424.8). RET S1 (Ac-Asp-Glu-Asp(EDANS)-Glu-Glu-Abu-[COO]Ala-Ser-Lys-(DABCYL)-NH2, AnaSpec 22991, MW 1548.6) is used as the fluorogenic peptide substrate. The assay buffer contains 50 mM Hepes at pH 7.5, 30 mM NaCl and 10 mM BME. The enzyme reaction is followed over a 30 minutes time course at room temperature in the absence and presence of inhibitors.
The peptide inhibitors HCV Inh 1 (Anaspec 25345, MW 796.8) Ac-Asp-Glu-Met-Glu-Glu-Cys-OH, [−20° C.] and HCV Inh 2 (Anaspec 25346, MW 913.1) Ac-Asp-Glu-Dif-Cha-Cys-OH, are used as reference compounds.
IC50 values are calculated using XLFit in ActivityBase (IDBS) using equation 205: y=A+((B−A)/(1+((C/x)^D))).

The mark [3] stands for this setting: Huh 11-7 cells, 4 days, HCV/GAPDH RNA ratio.

Where two headings read alike, the source gives them in different places.

For orientation: EC50 means the concentration needed to bring the measured effect to its halfway point. Usually IC50 stands for the midpoint of a concentration-inhibition curve.

T1 sequence (Q9WMX2 1013-1657, looked up, natural form): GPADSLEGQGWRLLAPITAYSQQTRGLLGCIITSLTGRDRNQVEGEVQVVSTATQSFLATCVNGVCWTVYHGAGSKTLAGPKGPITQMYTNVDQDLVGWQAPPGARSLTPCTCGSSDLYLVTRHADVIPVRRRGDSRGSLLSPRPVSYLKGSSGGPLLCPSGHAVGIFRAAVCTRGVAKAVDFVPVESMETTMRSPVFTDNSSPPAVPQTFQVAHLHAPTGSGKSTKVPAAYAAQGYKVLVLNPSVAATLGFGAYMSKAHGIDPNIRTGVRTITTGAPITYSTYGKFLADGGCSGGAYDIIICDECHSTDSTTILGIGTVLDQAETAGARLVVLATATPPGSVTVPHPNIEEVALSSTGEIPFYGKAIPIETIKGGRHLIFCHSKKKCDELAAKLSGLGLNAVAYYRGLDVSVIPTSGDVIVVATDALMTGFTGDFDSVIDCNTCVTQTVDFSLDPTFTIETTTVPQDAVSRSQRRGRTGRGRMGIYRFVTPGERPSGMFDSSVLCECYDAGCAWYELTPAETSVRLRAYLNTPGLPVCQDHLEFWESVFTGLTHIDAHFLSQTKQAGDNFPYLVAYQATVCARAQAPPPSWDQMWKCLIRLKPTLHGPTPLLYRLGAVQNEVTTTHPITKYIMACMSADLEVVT

Turning to `COc1c(-c2cccc3ccccc23)cnn([C@@H]2C[C@H]3C(=O)N[C@]4(C(=O)NS(=O)(=O)C5CC5)C[C@H]4/C=C\CCCCC[C@H](NC(=O)OC(C)(C)C)C(=O)N3C2)c1=O` [Example 30], in assay [1], the EC50 is under 0.2 nM. For the same compound, in assay [2], inhibition was half-maximal at 0.1 nM (IC50).

Turning to `COc1c(-c2cccc3ccccc23)cnn(C2CC3C(=O)NC4(C(=O)NS(=O)(=O)C5CC5)CC4C=CCCCCCC(NC(=O)OC4CCCC4)C(=O)N3C2)c1=O` (stereo not drawn) [Example 32], the EC50 in assay [1] (setting [3]) is under 0.2 nM. In assay [2], this compound showed an IC50 of 0.4 nM.

In the case of `COc1c(-c2cccc3ccccc23)cnn(C2CC3C(=O)NC4(C(=O)NS(=O)(=O)C5CC5)CC4C=CCCCCCC(NC(=O)c4cccs4)C(=O)N3C2)c1=O` (stereo not drawn) [Example 34], the 50% effective concentration (EC50) in assay [1] (setting [3]) is under 0.2 nM. Also, the half-maximal inhibitory concentration (IC50) in assay [2] turned out to be 0.2 nM.

These data come from US7718612B2, “Pyridazinonyl macrocyclic hepatitis C serine protease inhibitors” (Enanta Pharmaceuticals, Inc., priority 2006, dated 2010).
